Source: patent US20200215537A1, “ULTRASENSITIVE CANTILEVER” (3P SENSE LIMITED, priority 2017, published 2020)
Read-outs that look alike come from different tables or passages of the source. Blank lines part the entries; values can stand above or below the molecule they belong to.

Experiments:
L-VSR = experiment: Cantilever binding assay against L-VSR coated cantilevers; details: for biomechanical force / signal response: 50 μM ligand, sodium phosphate buffer pH 7.4, L-VSR coated cantilevers; for signal response over concentration range: all concentrations of ligand
Protocol: (§1) In the case of preparation of unpassivated cantilever, SAMs of D-VSR, L-VSR and inert PEG molecules were diluted to a concentration of 1 μM in pure ethanol. The diluted SAMs were individually injected into glass capillary tubes (King Precision Glass, Claremont, Calif., USA) which were arranged on the functionalization stage. The cantilevers were then functionalized by incubating them with individual SAMS inside the glass capillaries for 20 min. Care was taken to ensure that the hinge region was entirely covered with the SAM solution in order to ensure mechanical connectivity between the transduction arrays and hinge region.
(§2) Finally, learning from enantiomeric molecules, although identical in structure and are mirror images of one another with different physical characteristics, could be used to test the impact of the regulatory connectivity networks on the biomechanical forces involved in molecular interactions. So it was inferred that in chiral species the level of complementarity between a drug and its target will lead to different assemblies across the mirror images of the surface receptors and this can be reflected in the distinguishable biomechanical forces. To test this concept the interaction of the D-VSR and its corresponding mirror image (L-VSR) (see, Cantilever functionalization with surface target molecules) with the antibiotic drug vancomycin was studied. D-VSR is an enantiomer predominantly found in bacterial cell walls whereas L-VSR is not produced by bacteria. […] The mechanical response obtained using a high concentration of Van (50 μM) against 100 μm wide parallel transduction arrays of D-VSR and L-VSR was initially tested. […] In contrast the signal response of Van against L-VSR was very small ˜−200 pN, approximately 20 times smaller than with D-VSR (FIG. 5a). The experiment was repeated using a wide range of different concentrations of Van (0.1-1000 μM) on at least four separate chips.
(§3) Functionalized cantilever chips were mounted in a sealed liquid cell environment and a time-multiplexed optical laser readout system (Scentris, Veeco Instruments Inc., Santa Barbara, Calif., USA) was used to measure the cantilever bending. The laser alignment was considered successful if the difference between the minimum and maximum deflection was <5% when the cell temperature was raised by 1° C. for 10 min followed by 10 min cooling to room temperature. […]
(§4) The biomechanical force data from ligand-receptor interactions were measured as follows: sodium phosphate buffer (pH 7.4, 0.1 M) was injected into the cell for either 3 or 10 min to establish a baseline. […] Cantilever bending signals were measured in a fixed temperature-controlled hood at 25° C. using a liquid flow rate of 30-180 μL min^−1. […]

D-VSR = experiment: Cantilever binding assay against D-VSR coated cantilevers
Protocol: as §1, §2, §3, §4

[1] = SPR; cited from earlier work
[2] = solution; cited from earlier work
[3] = system: vancomycin susceptible receptor (VSR); experiment: Cantilever binding assay, vancomycin against VSR coated cantilevers
Protocol: as §1
The finding that a signal response is detectable even when the assembling of array networks is confined to only 30 μm of the geometrical width of the region covered while the corresponding geometeric length is fixed at 500 μm of the cantilever, prompted us to examine whether changing the dimensions of the cantilever itself whilst maintaining the mechanical connectivity of surface receptors has any impact on the signal sensitivity and reproducibility. This is because the dimensions of a sensing element can greatly impact on the signal response in several ways (1) the threshold size of the ligand capture cross-section area that is able to generate mechanical signaling decreases when the size of the sensing element is reduced, (2) the biomechanical force impacting on the sensing element is more pronounced for a narrow sensing element, and (3) the narrower the sensing element, the less rigid it is and the more responsive it will be to molecular forces. Further, continuous mechanical connectivity can be effected by the edging effects at the perimeter of the sensor itself and its impact would be more pronounced for narrower sensing elements (FIG. 1b). The effect on signal response by reducing the conventional cantilever width from 100 μm to 70 μm whilst keeping the length and thickness at 500 μm and 1 μm, respectively, was examined. These dimensions were chosen because they enable the narrowed cantilever to be used with standard instruments without the need for redesigning equipment. In addition, at this width the cantilever is less affected by the capillary forces and static charges which may render careful alignment of the scanning laser at the free-end more difficult. For this experiment vancomycin (Van) as the reporter molecule and vancomycin-susceptible receptor (or VSR)^21 as its target were used. Van is the Food and Drug Administration (FDA)-approved drug of last resort for clinical treatment of MRSA and clostridium difficile infections^38,39. This particular system was chosen because it gives relatively large signals and it has been previously shown that the quantitative Van-VSR binding constants can be measured^21 and so it can be used to redefine the limit of recognition of biologically relevant systems. The entire surface of the cantilever including the hinge region was coated with VSR using glass capillares (See Cantilever functionalization with surface target molecules). Artefacts that produce non-specific signals were overcome by performing differential measurements where the reference mercaptoundecyl tri(ethylene glycol) thiol (PEG)-coated cantilever signals was subtracted from the VSR signals. […] The signal response obtained from all three cantilevers was highly consistent and almost identical over a 60 min time period. Moreover, the compressive signal response was relatively high averaging −400±30 pN with a signal-to-noise ratio (SNR) of 7. […] Next, the impact of different concentrations on signal response initially fixed at 20, 50, 500 and 1000 nM (FIG. 4b-d) was examined. […] The thermodynamic pseudo-equilibrium signal response was attained at 60 and 50 min for 20 nM and 50 nM Van, respectively. In contrast, the thermodynamic pseudo-equilibrium was achieved within 6 min or less for Van concentrations ≥500 nM. […]

biomechanical force / signal response (L-VSR): ~−2000 pN
signal response over concentration range (L-VSR): remained small compared to D-VSR
ratio of signal response D-VSR versus L-VSR (D-VSR; 50 μM ligand): approximately 3 times
biomechanical force / mechanical response (D-VSR; 50 μM ligand, sodium phosphate buffer pH 7.4, D-VSR coated 100 μm wide cantilevers): ~−5000 pN
Molecule: ristocetin

Molecule: CN[C@H](CC(C)C)C(=O)N[C@H]1C(=O)N[C@@H](CC(N)=O)C(=O)N[C@H]2C(=O)N[C@H]3C(=O)N[C@H](C(=O)N[C@H](C(=O)O)c4cc(O)cc(O)c4-c4cc3ccc4O)[C@H](O)c3ccc(c(Cl)c3)Oc3cc2cc(c3O[C@@H]2O[C@H](CO)[C@@H](O)[C@H](O)[C@H]2O[C@H]2C[C@](C)(N)[C@H](O)[C@H](C)O2)Oc2ccc(cc2Cl)[C@H]1O [Van, vancomycin]
Kd [1]: 1 ± 0.3 µM
biomechanical force / signal response (L-VSR): ~−200 pN
signal response over concentration range (L-VSR): only a small signal response
ratio of signal response D-VSR versus L-VSR (D-VSR; 50 μM ligand): approximately 20 times
ligand concentration at which plateau was reached (D-VSR; 0.1-1000 μM Van): 50 µM
Kd [2]: 0.7 µM
signal response ([3]; 500 pM Van, 100 μm wide cantilevers): no signal response
mechanical force / signal response ([3]; 500 pM Van, pH 7.4, small sized (70 μm wide) cantilever, three separate cantilevers): −400±30 pN
Van concentration at which signal response reached a plateau ([3]; 0.0005 μM to 250 μM Van, narrow cantilevers): 10 µM
time to thermodynamic pseudo-equilibrium signal response ([3]; 20 nM Van): 60 min
biomechanical force response ([3]; 20 nM Van, small sized cantilever): ~−500 pN
time to thermodynamic pseudo-equilibrium signal response ([3]; 50 nM Van): 50 min
biomechanical force response ([3]; 50 nM Van, small sized cantilever): ~−1500 pN
biomechanical force response ([3]; 500 nM Van, small sized cantilever): ~−3000 pN
mechanical force response ([3]; 1 μM Van, 3 separate small sized cantilevers): ~−5000±400 pN
signal response ([3]; 1 μM Van, conventional 100 μm wide cantilevers): −120 nm
Kd ([3]; 100 μm and 70 μm cantilevers, read-out: Kd (surface thermodynamic equilibrium dissociation constant, equation (1))): 0.5 ± 0.1 µM
time to thermodynamic pseudo-equilibrium ([3]; Van concentrations ≥500 nM): ≤ 6 min
reversibility of signal response ([3]; all concentrations of Van): reversible
mechanical forces arising from [Van] against VSR (plot) ([3]; large sized cantilever): ~−3800 pN
mechanical forces arising from [Van] against VSR (plot) ([3]; small sized cantilever): ~−6900 pN
